Measurements: ChEMBL document CHEMBL1136210, “Bone-targeted pyrido[2,3-d]pyrimidin-7-ones: potent inhibitors of Src tyrosine kinase as novel antiresorptive agents” (Bioorg Med Chem Lett, 2003)

What was measured:
[1] = Compound was tested for toxicity by the presence of tartrate resistant acid phosphatase (TRAP)-positive cell; Normal; type: functional
Oryctolagus cuniculus = species: Oryctolagus cuniculus; assay: Inhibition of rabbit-osteoclast mediated resorption of dentine slices
[2] = biological target: Proto-oncogene tyrosine-protein kinase Src (Homo sapiens, UniProt P12931); assay: Inhibition of Src protein tyrosine kinase
Chain of Proto-oncogene tyrosine-protein kinase Src (P12931 2-536 limits assumed): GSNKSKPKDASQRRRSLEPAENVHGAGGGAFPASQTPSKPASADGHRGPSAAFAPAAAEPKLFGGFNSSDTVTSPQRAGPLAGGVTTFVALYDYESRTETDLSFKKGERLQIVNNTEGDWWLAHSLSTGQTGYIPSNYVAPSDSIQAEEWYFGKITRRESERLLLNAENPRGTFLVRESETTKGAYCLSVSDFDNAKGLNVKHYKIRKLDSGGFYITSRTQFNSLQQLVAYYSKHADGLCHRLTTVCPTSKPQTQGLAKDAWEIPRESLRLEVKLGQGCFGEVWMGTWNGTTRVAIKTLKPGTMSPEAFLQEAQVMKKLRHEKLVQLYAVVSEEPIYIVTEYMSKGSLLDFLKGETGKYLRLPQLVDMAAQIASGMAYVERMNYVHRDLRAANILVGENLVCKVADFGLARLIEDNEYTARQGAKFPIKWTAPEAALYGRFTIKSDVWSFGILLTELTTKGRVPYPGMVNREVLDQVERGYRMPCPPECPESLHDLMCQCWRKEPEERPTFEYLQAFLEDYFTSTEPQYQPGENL

Row | SMILES | TRAP staining [1] | IC50 (Oryctolagus cuniculus) [nM] | IC50 [2] [nM]
1 | Cn1c(=O)c(-c2c(Cl)cccc2Cl)cc2cnc(Nc3ccc(P(=O)(O)CP(=O)(O)O)cc3)nc21 | Not toxic | 3000 | 
2 | Cn1c(=O)c(-c2c(Cl)cccc2Cl)cc2cnc(Nc3cccc(P(=O)(O)CP(=O)(O)O)c3)nc21 | Not toxic | 4000 | 
3 | Cn1c(=O)c(-c2c(Cl)cccc2Cl)cc2cnc(Nc3ccccc3)nc21 |  |  | 16
4 | CN(C)CCCn1c(=O)c(-c2c(Cl)cccc2Cl)cc2cnc(Nc3ccc(P(=O)(O)CP(=O)(O)O)cc3)nc21 | Not toxic | 800 | 
